Reference: US20070021501A1, “Methods of treating epileptogenesis” (priority 2005, published 2007)
“And” between values parts separate entries of the source, which are not always exact repeats. Equal values may be shown once.

Legend:
[1] = system: lithium-pilocarpine model of temporal lobe epilepsy in the rat; test: Quantification of cell densities in hippocampus, thalamus and cortex after Li-pilo SE (Example 1); format: in vivo; conditions: for damage compared to saline-saline rats / cell loss compared to saline-saline rats: DZP; for more damage (worsening of cell loss) compared with pilo-DZP rats: TC 10 mg/kg
Experimental: Quantification of cell densities was performed at 6 days after SE on 8 pilo-DZP, 8 pilo-TC10, 7 pilo-TC30, 7 pilo-TC60, and 6 saline-saline rats.
Cell counts were performed twice in a blind manner and were the average of at least 3 values from 2 adjacent sections in each individual animal. Counts involved only cells larger than 10 μm, smaller ones being considered as glial cells.
For the comparison of the characteristics of SE in pilo-saline and pilo-test compound animals, a non-paired Student's t-test was used. The comparison between the number of rats seizing in both groups was performed by means of a Chi square test. For neuronal damage, statistical analysis between groups was performed using ANOVA followed by a Fisher's test for multiple comparisons using the Statview software (Fisher R A, 1946a, Statistical Methods for Research Workers (10th edition) Oliver & Boyd, Edinburgh; Fisher R A, 1946b, The Design of Experiments (4th edition) Oliver & Boyd, Edinburgh) Behavioral and EEG Characteristics of Lithium-pilocarpine Status Epilepticus

[2] = system: lithium-pilocarpine model of temporal lobe epilepsy in the rat; test: Latency to and frequency of spontaneous recurrent seizures (SRS), lithium-pilocarpine model (Example 1); format: in vivo
Experimental: The bilateral EEG cortical activity was recorded during the whole duration of SE and behavioral changes were noted.
The effects of increasing doses of the test compound were studied on 3 groups of rats. The animals of the first group received 10 mg/kg of the test compound, i.p., 1 h after the onset of SE (pilo-TC10) while the animals of groups 2 and 3 received 30 and 60 mg/kg of the test compound (pilo-TC30 and pilo-TC60), respectively.
The control group received saline instead of pilocarpine and the test compound (saline-saline). […] Pilo-DZP received a second injection of 1 mg/kg DZP on the day of SE at about 10 h after the first one. Thereafter, Pilo-DZP and saline-saline rats received twice daily an equivalent volume of saline. […]
To calculate the frequency of SRS in pilocarpine-exposed rats, the seizure severity and distinguished stage III (clonic seizures of facial muscles and anterior limbs) and stage IV-V seizures (rearing and falling) was considered. […] The frequency of more severe stage IV-V SRS was highest during the first week in most groups, except pilo-TC30 and TC60 with late seizure onset where the SRS frequency was constant over the whole 4 weeks in TC30 group and over the first two weeks in the pilo-TC60 group with late SRS onset in which no stage IV-V seizures where no seizures recorded after the second week.

[3] = dorsal entorhinal cortex layers III-IV
[4] = ventral entorhinal cortex layers III-IV

SMILES: CN1C(=O)CN=C(c2ccccc2)c2cc(Cl)ccc21 [DZP, diazepam]
- damage compared to saline-saline rats ([1]; dentate gyrus granule cell layer): did not show visible damage
- damage compared to saline-saline rats ([1]; dorsal entorhinal cortex layer II): 9%
- damage compared to saline-saline rats [1, 3]: 15%
- cell loss compared to saline-saline rats ([1]; hilus of dentate gyrus): 73%
- cell loss compared to saline-saline rats ([1]; hippocampus CA1 pyramidal cell layer): 70% and 75%
- cell loss compared to saline-saline rats ([1]; hippocampus CA3a): 54%
- cell loss compared to saline-saline rats ([1]; hippocampus CA3b): 31%
- cell loss compared to saline-saline rats ([1]; lateral thalamic nucleus): 91%
- cell loss compared to saline-saline rats ([1]; mediodorsal thalamic nucleus): 56%
- cell loss compared to saline-saline rats ([1]; piriform cortex layer II): 53%
- cell loss compared to saline-saline rats ([1]; piriform cortex layers III-IV): total
- damage compared to saline-saline rats ([1]; ventral entorhinal cortex layer II): totally preserved
- cell loss compared to saline-saline rats [1, 4]: 44%

SMILES: NC(=O)OC[C@@H](O)c1ccccc1Cl [TC]
- frequency of stage III SRS ([2]; TC 10 mg/kg, weeks 3 and 4): significantly increased over pilo-DZP values
- occurrence of epilepsy ([2]; TC 60 mg/kg, one rat): did not become epileptic in a delay of 9 months post-SE
- more damage (worsening of cell loss) compared with pilo-DZP rats [1, 3]: 28%
- more damage (worsening of cell loss) compared with pilo-DZP rats [1, 4]: 35%
- cell loss ([1]; TC 30 mg/kg, hippocampus CA1 pyramidal layer): 35%
- cell loss ([1]; TC 60 mg/kg, hippocampus CA1 pyramidal layer): 16%
- reduction of neuronal damage recorded in the pilo-DZP rats ([1]; TC 60 mg/kg, piriform cortex layer II): 41%
- reduction of neuronal damage recorded in the pilo-DZP rats ([1]; TC 60 mg/kg, piriform cortex layers III-IV): 44%
- neuroprotection compared to pilo-DZP rats ([1]; TC 60 mg/kg, ventral entorhinal cortex layers III-IV): 31%
- cell loss ([1]; pilo-test compound animals (range over doses), hilus of dentate gyrus): 69-72%
- protection compared to pilo-DZP rats ([1]; test compound 60 mg/kg, CA3b): significantly neuroprotective
- protection compared to pilo-DZP rats ([1]; test compound, CA3a area): did not afford any protection
